Several values for one entry are separate records, joined by “and”; a condition that tells them apart may be missing. Equal entries are not always repeated. Where two headings read alike, the source gives them in different places. Where no end group is shown, it is not given here.
What was measured:
Assay type in all cases: cell-based
[1] = target: T1, NMU2 (Homo sapiens, UniProt Q9GZQ4); test: TRUPATH Gαi1βγ biosensor assay, WT NMU2; settings: for NmU-25–induced G protein activation of NMU2: single replicates, in % (unit assumed)
T1 construct: HA signal peptide (N); expressed in transfected cells; host or cells: HEK 293F
Description: (§1) The plasmids of Gαi1, Gβ3, and Gγ9 used for the TRUPATH assay were purchased from Addgene (TRUPATH Kit, #1000000163). NMU2 constructs of WT and mutants were constructed into a PTT5 vector (Invitrogen) with an N-terminal HA signal peptide followed by a Flag tag. HEK 293F cells were transiently transfected with WT or mutants of NMU2, Gαi1, Gβ3, and Gγ9 at an […] ratio of 4:1:1:1 with a total of 3500 ng plasmid DNA using a transfection reagent (PEI MAX 2000, Polysciences) and cultivated at 37 °C with 5 % CO2. Cells were collected after 48-h transfection. The expression level of the receptor was measured by incubating 10 μl cells with 15 μl TBS buffer supplemented with 4% bovine serum albumin, 20% (v/v) viability staining solution7-AAD (Invitrogen, Cat#00-6993-50), and ANTI-FLAG M2-FITC antibody (Sigma, F4049; 1:100 diluted by TBS) at 4 °C for 20 min. After incubation, 175 μl TBS buffer was added, and the fluorescence signal on the cell surface was detected by an FCM (flow cytometry) reader (Millipore). The cells were diluted with 1× HBSS (Hank’s balanced salt solution) balanced buffer supplemented with 25 mM HEPES, pH 7.4, and seeded onto the 96-well opaque cell culture plates (Beyotime) at a density of 18,000 cells per well by 60 μl. Freshly prepared 50 μM coelenterazine 400a (Nanolight Technologies) was added into the well by 10 μl. After a 5 min equilibration time in the darkness, plates were then read in a Synerg^TM H1 microplate reader (BioTek) with excitation at 395 nm and emission at 410 and 515 nm by serially three times. Then, 30 μl of 3.3× agonists were added into the wells with a gradient final concentration from 10^−4–10^−13 M. Plates were read immediately again by serially five times. Data were processed and analyzed following the method in the literature by using GraphPad Prism 8.0.

[2] = target: T2, NMU2 E102A (Homo sapiens, UniProt Q9GZQ4, E102A); test: TRUPATH assay, NMU2 mutant E102A
T2 construct: HA signal peptide (N); expressed in transfected cells; host or cells: HEK 293F
Description: as §1, with “The cells were diluted with 1× HBSS (Hank’s balanced salt solution) balanced buffer supplemented with 25 mM HEPES, pH 7.4, and seeded onto the 96-well opaque cell culture plates (Beyotime) at a density of 18,000 cells per well by 60 μl. Freshly prepared 50 μM coelenterazine 400a (Nanolight Technologies) was added into the well by 10 μl.” left out, “Data were processed and analyzed following the method in the literature by using GraphPad Prism 8.0.” left out

[3] = target: T3, NMU2 N109A (Homo sapiens, UniProt Q9GZQ4, N109A); test: TRUPATH assay, NMU2 mutant N109A
T3 construct: HA signal peptide (N); expressed in transfected cells; host or cells: HEK 293F
Description: as §1

[4] = target: T4, NMU2 W281A (Homo sapiens, UniProt Q9GZQ4, W281A); test: TRUPATH assay, NMU2 mutant W281A
T4 construct: HA signal peptide (N); expressed in transfected cells; host or cells: HEK 293F
Description: as §1

[5] = target: T5, NMU2 F284A (Homo sapiens, UniProt Q9GZQ4, F284A); test: TRUPATH assay, NMU2 mutant F284A
T5 construct: HA signal peptide (N); expressed in transfected cells; host or cells: HEK 293F
Description: as §1

[6] = target: T6, NMU2 N306Q (Homo sapiens, UniProt Q9GZQ4, N306Q); test: TRUPATH assay, NMU2 mutant N306Q
T6 construct: HA signal peptide (N); expressed in transfected cells; host or cells: HEK 293F
Description: as §1

[7] = target: T7, NMU2 E127A (Homo sapiens, UniProt Q9GZQ4, E127A); test: IP accumulation assay, NMU2 mutant E127A; settings: IP accumulation
T7 construct: HA signal peptide (N); expressed in transfected cells; host or cells: HEK 293F
Description: (§2) NMU2 constructs of WT and mutants were constructed into PTT5 vector (Invitrogen), as mentioned above. HEK 293F cells were transiently transfected with WT or mutants with total of 2000 ng plasmid DNA using transfection reagent (PEI MAX 2000, Polysciences) and cultivated at 37 °C with 5% CO2. Cells were collected after 48-h transfection. IP accumulation was tested by IP-One Gq assay kit (Cisbio Bioassays, 62IPAPEJ) following the instruction manual. In general, cells were resuspended with 1× HBSS buffer containing 20 mM LiCl (stimulation buffer) and seeded into the white 384-well microplates (Proxi Plate^TM-384 Plus, PerkinElmer) with a density of 20,000 per well. Cells were preincubated with 10^−5 M R-PSOP (provided by Boehringer Ingelheim company, Germany) and gradient concentration from 10^−4 to 10^−11 M of NMU-25 or gradient concentration 10^−4 to 10^−11 M of NMU-25 alone in stimulation buffer at 37 °C for 90 min. The cryptate-labeled anti-IP1 monoclonal antibody and d2-labeled IP1 were diluted with lysis & detection buffer (1:20) and added to each well by 3 μl, respectively. The plates were incubated at room temperature for 60 minutes and then read in a Synerg^TM H1 microplate reader (BioTek) with excitation at 330 nm and emission at 620 and 665 nm. The IP1 production was calculated by a standard dose–response curve and analyzed by GraphPad Prism 8.0.

[8] = target: T8, NMU2 F177C (Homo sapiens, UniProt Q9GZQ4, F177C); test: IP accumulation assay, NMU2 mutant F177C; settings: IP accumulation
T8 construct: HA signal peptide (N); expressed in transfected cells; host or cells: HEK 293F, transient transfection, PTT5 vector
Description: as §2

[9] = target: T9, NMU2 F224A (Homo sapiens, UniProt Q9GZQ4, F224A); test: IP accumulation assay, NMU2 mutant F224A; settings: IP accumulation
T9 construct: HA signal peptide (N); expressed in transfected cells; host or cells: HEK 293F, transient transfection, PTT5 vector
Description: as §2

[10] = target: T10, NMU2 H285A (Homo sapiens, UniProt Q9GZQ4, H285A); test: IP accumulation assay, NMU2 mutant H285A; settings: IP accumulation
T10 construct: HA signal peptide (N); expressed in transfected cells; host or cells: HEK 293F, transient transfection, PTT5 vector
Description: as §2

[11] = target: T11, NMU2 R288A (Homo sapiens, UniProt Q9GZQ4, R288A); test: IP accumulation assay, NMU2 mutant R288A
T11 construct: HA signal peptide (N); expressed in transfected cells; host or cells: HEK 293F
Description: as §2

[12] = read-out: pEC50 mean±SEM (converted)
[13] = read-out: pEC50±SEM, NmU-25 alone (converted)

T1 sequence (Q9GZQ4 whole entry): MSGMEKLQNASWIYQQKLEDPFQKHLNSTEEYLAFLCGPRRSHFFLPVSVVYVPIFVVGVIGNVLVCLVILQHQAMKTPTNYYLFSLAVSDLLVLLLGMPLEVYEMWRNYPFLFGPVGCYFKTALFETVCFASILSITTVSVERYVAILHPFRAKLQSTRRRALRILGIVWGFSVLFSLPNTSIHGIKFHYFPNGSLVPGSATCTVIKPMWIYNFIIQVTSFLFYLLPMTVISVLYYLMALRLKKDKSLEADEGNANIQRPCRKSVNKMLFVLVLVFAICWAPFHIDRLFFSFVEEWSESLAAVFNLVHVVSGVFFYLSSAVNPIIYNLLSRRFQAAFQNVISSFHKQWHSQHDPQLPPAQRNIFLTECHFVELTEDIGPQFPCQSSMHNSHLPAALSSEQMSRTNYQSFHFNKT
T6 sequence (Q9GZQ4 whole entry N306Q): as the sequence (Q9GZQ4 whole entry) above, with N306Q counted along it
T3 sequence (Q9GZQ4 whole entry N109A): as the sequence (Q9GZQ4 whole entry) above, with N109A counted along it
T4 sequence (Q9GZQ4 whole entry W281A): as the sequence (Q9GZQ4 whole entry) above, with W281A counted along it
T5 sequence (Q9GZQ4 whole entry F284A): as the sequence (Q9GZQ4 whole entry) above, with F284A counted along it
T10 sequence (Q9GZQ4 whole entry H285A): as the sequence (Q9GZQ4 whole entry) above, with H285A counted along it
T9 sequence (Q9GZQ4 whole entry F224A): as the sequence (Q9GZQ4 whole entry) above, with F224A counted along it
T8 sequence (Q9GZQ4 whole entry F177C): as the sequence (Q9GZQ4 whole entry) above, with F177C counted along it
T7 sequence (Q9GZQ4 whole entry E127A): as the sequence (Q9GZQ4 whole entry) above, with E127A counted along it
T11 sequence (Q9GZQ4 whole entry R288A): as the sequence (Q9GZQ4 whole entry) above, with R288A counted along it
T2 sequence (Q9GZQ4 whole entry E102A): as the sequence (Q9GZQ4 whole entry) above, with E102A counted along it

## FRVDEEFQSPFASQSRGYFLFRPRN-NH2 [NmU-25]
[1]; TRUPATH, peer review file
  potency on Gi1, Gq and G11 signaling pathways (in words): highest potency by coupling Gi1
[1]; WT
  EC50 ratio EC50(mutant)/EC50(WT): 1
  Span (window between Emax and minimal agonist response): 100±5 % of WT
[1]; WT, Log [NmU-25] M -4
  NmU-25–induced G protein activation of NMU2: 96.1513 and 120.034 and 131.645 and 132.135 and 112.945 and 100.303 and 111.674 and 103.511
[1]; WT, Log [NmU-25] M -5
  NmU-25–induced G protein activation of NMU2: 94.5176 and 100.381 and 95.0326
[1]; WT, Log [NmU-25] M -8
  NmU-25–induced G protein activation of NMU2: 14.7563 and 14.6245 and 25.1777 and 27.4903 and 32.4994 and 60.5946 and 16.3263 and -20.6053 and 85.0469 and -9.5497 and 77.5389 and 54.5579 and 12.0114
[1]; WT, Log [NmU-25] M -9
  NmU-25–induced G protein activation of NMU2: 14.8034 and 2.989 and 12.9021 and 10.3696 and 7.38 and -3.464 and 27.6247 and 0.6791 and -7.166 and 14.4877 and 22.3774 and 22.0623 and -4.444
[1]; WT, Log [NmU-25] M -10
  NmU-25–induced G protein activation of NMU2: -1.975 and -9.668 and -7.55 and 11.1071 and -8.093 and -25.3752 and 0.6481 and -23.592 and -13.8096 and 16.7093 and 3.342 and 8.321 and 30.8279
[1]; WT, Log [NmU-25] M -11
  NmU-25–induced G protein activation of NMU2: -12.488 and 4.703 and -8.667 and -24.4881 and 6.542 and 34.4845 and -19.0587 and 46.905 and 31.0606 and -18.1089 and -17.8891 and -27.6836
[1]; WT, agonist-induced G protein activation, HEK 293F, read-out: EC50
  EC50: 34 nM
[1]; WT, earlier manuscript version quoted in peer review file, read-out: EC50
  EC50: 37 nM
[1]; WT, read-out: pEC50 mean±SEM (converted)
  EC50: 34.7 nM
[2]
  potency (in words): complete loss of potency
[3]
  EC50 ratio EC50(mutant)/EC50(WT): 9
  Span (window between Emax and minimal agonist response): 138±11 % of WT
[3]; Log [agonist] M -4
  G protein activation (TRUPATH), dose-response point: 126.259
[3]; Log [agonist] M -5
  G protein activation (TRUPATH), dose-response point: 106.487 and 123.773 and 113.723
[3]; Log [agonist] M -6
  G protein activation (TRUPATH), dose-response point: 98.1363 and 71.1117 and 54.8765
[3]; individual experiments
  ΔpEC50 (from WT): -1.459 and -0.6318 and -0.9885
[3]; read-out: EC50
  EC50: 298 nM
[3]; [12]
  EC50: 295 nM
[4]
  EC50 ratio EC50(mutant)/EC50(WT): 24
  Span (window between Emax and minimal agonist response): 55±9 % of WT
[4]; Log [agonist] M -4
  G protein activation (TRUPATH), dose-response point: 31.1201 and 49.629
[4]; individual experiments
  ΔpEC50 (from WT): -1.673 and -1.545 and -1.465
[4]; read-out: EC50
  EC50: 814 nM
[4]; [12]
  EC50: 813 nM
[5]; Log [NmU-25] M -4, single replicates
  NmU-25–induced G protein activation of NMU2: 51.7867 and 36.0609 and 47.0977
[5]; Log [NmU-25] M -5, single replicates
  NmU-25–induced G protein activation of NMU2: 36.8137 and 51.0666 and -1.433 and 5.137 and 15.0834
[5]; Log [NmU-25] M -6, single replicates
  NmU-25–induced G protein activation of NMU2: -9.689 and 18.4963 and 20.7431 and 10.1867 and 6.446
[5]; Log [NmU-25] M -7, single replicates
  NmU-25–induced G protein activation of NMU2: 16.596 and 4.555 and 25.4325 and 3.668 and -4.14
[5]; Log [NmU-25] M -8, single replicates
  NmU-25–induced G protein activation of NMU2: 37.8124 and 33.3355 and -35.58 and 1.433 and 3.8556
[5]; Log [NmU-25] M -9, single replicates
  NmU-25–induced G protein activation of NMU2: 18.5281 and 39.1515 and -3.291 and -33.2453 and 1.059
[5]; Log [NmU-25] M -10, single replicates
  NmU-25–induced G protein activation of NMU2: -33.6452 and 11.984 and -41.6359 and -19.8948 and -2.9799
[5]; Log [NmU-25] M -11, single replicates
  NmU-25–induced G protein activation of NMU2: -12.488 and 31.0606 and -18.1089 and -17.8891 and -12.403
[5]; Log [agonist] M -4
  G protein activation (TRUPATH), dose-response point: 51.7867 and 36.0609 and 47.0977
[6]
  EC50 ratio EC50(mutant)/EC50(WT): 14
  Span (window between Emax and minimal agonist response): 101±10 % of WT
[6]; Log [agonist] M -4
  G protein activation (TRUPATH), dose-response point: 89.9582 and 52.9953 and 88.5352
[6]; Log [agonist] M -5
  G protein activation (TRUPATH), dose-response point: 95.8006 and 91.3095 and 87.6434
[6]; individual experiments
  ΔpEC50 (from WT): -1.093 and -0.9304 and -1.223
[6]; read-out: EC50
  EC50: 466 nM
[6]; [12]
  EC50: 468 nM
[7]; read-out: EC50, NmU-25 alone
  EC50: 2140 nM
[7]; [13]
  EC50: 2140 nM
[8]; read-out: EC50, NmU-25 alone
  EC50: 7 nM
[8]; [13]
  EC50: 7.08 nM
[9]; read-out: EC50, NmU-25 alone
  EC50: 46 nM
[9]; [13]
  EC50: 45.7 nM
[10]; read-out: EC50, NmU-25 alone
  EC50: 214 nM
[10]; [13]
  EC50: 214 nM
[11]
  NmU-25-induced IP accumulation (in words): totally eliminated
